Assay results from ChEMBL document CHEMBL5030537 (J Med Chem, 2021).
pEC50, pIC50: −log10 of the molar value. Values after ≈ are worked out from the molar mass of the structure shown. Blank lines part the entries; values can stand above or below the compound they belong to.

What was measured:
[1] = target: T1, Tyrosine-protein kinase BTK (Homo sapiens, UniProt Q06187); test: Inhibition of Btk (unknown origin) assessed as inhibition of phosphorylation of FAM-labelled peptide substrate
[2] = target: T1, Tyrosine-protein kinase BTK; test: Inhibition of human Btk in human Raji cells assessed as PhosY223 measured after 30 mins by cellular HTRF assay; format: cell-based
[3] = AUC in collagen-induced arthritis rat model at 3 mg/kg, po […] after 22 days; format: ADME, organism-based; design: dose 3 mg/kg, time 22 day; settings: in vivo, 528 h
[4] = Half life in Beagle dog; format: ADME, Canis lupus familiaris; settings: in vivo
[5] = Thermodynamic solubility of the compound at pH 6.8 in JP2 fluid; format: physicochemical; settings: read-out: Therm_solubility
PDE5 = PDE5 (Homo sapiens, UniProt O76074); test: Inhibition of PDE5 (unknown origin) assessed as remaining activity
Salmonella typhimurium [6] = test: Genotoxicity in Salmonella typhimurium TA98 by Ames test; format: toxicity, organism-based; settings: salmonella enterica subsp. enterica serovar typhimurium
MDR1 [7] = test: Efflux ratio of apparent permeability in LLC-PK1-MDR1 cells; settings: pig
Rattus norvegicus [8] = test: Antiarthritic activity against collagen-induced arthritis po dosed Lewis rat model assessed as inhibition of paw swelling measured after 22 days; format: organism-based; settings: 528 h, time 22 day
Rattus norvegicus [9] = test: Antiarthritic activity against collagen-induced arthritis Lewis rat model assessed as inhibition of paw swelling treated po once daily for 21 days; format: functional, organism-based; settings: dose 0.3-3 mg/kg, time 21.0 day
[10] = Thermodynamic solubility of the compound at pH 1.2 in JP1 fluid; format: physicochemical; settings: read-out: Therm_solubility
[11] = Plasma protein binding in Sprague-Dawley rat measured by rapid equilibrium dialysis method; format: ADME, cell-free; settings: read-out: PPB (converted)
[12] = Stability in PBS buffer measured after 2 hrs; format: physicochemical
[13] = Metabolic stability in human liver hepatocytes assessed as extraction ratio; settings: mouse
[14] = Plasma protein binding in human measured by rapid equilibrium dialysis method; format: ADME, cell-free; settings: read-out: PPB (converted)
[15] = target: Tyrosine-protein kinase Lck (Homo sapiens, UniProt P06239); test: Inhibition of Lck (unknown origin)
Rattus norvegicus [16] = test: Antiarthritic activity against collagen-induced arthritis Lewis rat model assessed as change in paw volume at 0.3 mg/kg, po once daily for 22 days; format: functional; settings: time 22 day
[17] = In vivo stability in Sprague-Dawley rat liver assessed as extraction ratio at 70 ml/kg
[18] = Oral bioavailability in Sprague-Dawley rat; format: ADME, organism-based; settings: in vivo
[19] = Toxicity in rat assessed as adverse effect; settings: in vivo
[20] = Metabolic stability in Beagle dog liver hepatocytes assessed as extraction ratio
Rattus norvegicus [21] = test: Antiarthritic activity against collagen-induced arthritis Lewis rat model assessed as change in paw volume at 3 mg/kg, po once daily for 22 days; format: functional; settings: time 22 day
[22] = GSH reactivity in pH 7.4 PBS buffer assessed as intrinsic reactivity by measuring percent remaining measured after 2 hrs; format: physicochemical; settings: read-out: Stability
[23] = Oral bioavailability in Beagle dog; format: ADME, organism-based, Canis lupus familiaris; settings: in vivo
[24] = Clearance in Beagle dog at 1 mg/kg, iv; format: ADME, organism-based, Canis lupus familiaris; settings: in vivo
[25] = In vivo inhibition of pBTK in collagen-induced arthritis rat model at 3-30 mg/kg after 12 hrs; format: functional
Salmonella typhimurium [26] = test: Genotoxicity in Salmonella typhimurium TA1537 by Ames test; format: toxicity, organism-based; settings: salmonella enterica subsp. enterica serovar typhimurium
Rattus norvegicus [27] = test: Antiarthritic activity against collagen-induced arthritis Lewis rat model assessed as change in paw volume at 0.1 mg/kg, po once daily for 22 days; format: functional; settings: time 22 day
[28] = Toxicity in human peripheral blood lymphocytes in presence of S9 fraction by micronucleus test; format: subcellular, Lymphocyte
Salmonella typhimurium [29] = test: Genotoxicity in Salmonella typhimurium TA1535 by Ames test; format: toxicity, organism-based; settings: salmonella enterica subsp. enterica serovar typhimurium
[30] = Metabolic stability in Sprague-Dawley rat liver hepatocytes assessed as extraction ratio
[31] = Metabolic stability in monkey liver hepatocytes assessed as extraction ratio; settings: rhesus monkey
PDE10A2 = PDE10A2 (Homo sapiens, UniProt Q9Y233); test: Inhibition of PDE10A2 (unknown origin) assessed as remaining activity
Salmonella typhimurium [32] = test: Genotoxicity in Salmonella typhimurium WP2 uvrA in absence of S9 fraction by Ames test; format: toxicity, organism-based; settings: salmonella enterica subsp. enterica serovar typhimurium
[33] = In vivo stability in Beagle dog liver assessed as extraction ratio at 35 ml/kg
[34] = Thermodynamic solubility of the compound at pH 6.8 in GCDC; format: physicochemical; settings: read-out: Therm_solubility
[35] = target: Proto-oncogene tyrosine-protein kinase Src (Homo sapiens, UniProt P12931); test: Inhibition of Src (unknown origin)
Salmonella typhimurium [36] = test: Genotoxicity in Salmonella typhimurium […] by Ames test; format: toxicity, organism-based; settings: salmonella enterica subsp. enterica serovar typhimurium
[37] = Toxicity in dog assessed as adverse effect; design: species or system Canis lupus familiaris; settings: in vivo
MDR1 [38] = test: Apparent permeability from apical to basolateral side in LLC-PK1-MDR1 cells; format: ADME, cell-based, Sus scrofa; settings: pig
[39] = Metabolic stability in mouse liver hepatocytes assessed as extraction ratio
[40] = Toxicity in human peripheral blood lymphocytes in absence of S9 fraction by micronucleus test; format: cell-based; settings: lymphocyte
Salmonella typhimurium [41] = test: Genotoxicity in Salmonella typhimurium WP2 uvrA in presence of S9 fraction by Ames test; format: toxicity, organism-based; settings: salmonella enterica subsp. enterica serovar typhimurium
PDE3 = test: Inhibition of PDE3 (unknown origin) assessed as remaining activity; settings: human
hERG (KCNH2) = hERG (KCNH2) (Homo sapiens, UniProt Q12809); test: Inhibition of hERG at 13 uM
[42] = Half life in Sprague-Dawley rat; format: ADME; settings: in vivo
Rattus norvegicus [43] = test: Antiarthritic activity against collagen-induced arthritis Lewis rat model assessed as change in paw volume at 1 mg/kg, po once daily for 22 days; format: functional; settings: time 22 day

T1 sequence (Q06187 whole entry): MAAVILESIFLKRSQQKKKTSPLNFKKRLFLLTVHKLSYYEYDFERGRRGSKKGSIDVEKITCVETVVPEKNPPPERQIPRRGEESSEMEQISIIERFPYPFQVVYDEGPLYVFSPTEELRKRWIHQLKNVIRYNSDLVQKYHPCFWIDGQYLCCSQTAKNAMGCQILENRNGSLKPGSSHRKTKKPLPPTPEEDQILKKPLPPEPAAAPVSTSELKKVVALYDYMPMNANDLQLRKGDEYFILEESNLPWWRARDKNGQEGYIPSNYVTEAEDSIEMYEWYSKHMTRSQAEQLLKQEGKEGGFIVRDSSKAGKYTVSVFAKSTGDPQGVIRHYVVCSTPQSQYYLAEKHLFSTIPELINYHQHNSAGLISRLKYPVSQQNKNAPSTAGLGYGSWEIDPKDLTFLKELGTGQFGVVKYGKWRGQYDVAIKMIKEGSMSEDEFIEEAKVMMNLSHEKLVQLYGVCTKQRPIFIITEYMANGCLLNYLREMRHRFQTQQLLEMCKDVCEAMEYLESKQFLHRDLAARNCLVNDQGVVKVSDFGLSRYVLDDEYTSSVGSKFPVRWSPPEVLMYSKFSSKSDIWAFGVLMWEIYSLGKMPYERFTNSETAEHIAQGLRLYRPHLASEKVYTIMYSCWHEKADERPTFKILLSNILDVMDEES
Sequence of Tyrosine-protein kinase Lck (P06239 whole entry): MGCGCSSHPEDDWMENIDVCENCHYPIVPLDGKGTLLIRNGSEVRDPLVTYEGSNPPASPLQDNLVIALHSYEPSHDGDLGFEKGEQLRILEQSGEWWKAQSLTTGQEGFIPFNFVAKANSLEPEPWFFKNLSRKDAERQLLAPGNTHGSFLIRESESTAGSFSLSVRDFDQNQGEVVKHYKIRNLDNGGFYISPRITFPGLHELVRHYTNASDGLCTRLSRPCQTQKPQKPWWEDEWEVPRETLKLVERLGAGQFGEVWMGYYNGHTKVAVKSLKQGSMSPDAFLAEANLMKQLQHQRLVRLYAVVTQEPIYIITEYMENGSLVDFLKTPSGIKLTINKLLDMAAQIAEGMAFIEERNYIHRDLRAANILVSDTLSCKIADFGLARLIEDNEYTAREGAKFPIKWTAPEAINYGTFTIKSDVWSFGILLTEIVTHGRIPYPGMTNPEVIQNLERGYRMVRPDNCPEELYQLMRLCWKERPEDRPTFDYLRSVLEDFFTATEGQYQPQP
Sequence of PDE10A2 (Q9Y233 whole entry): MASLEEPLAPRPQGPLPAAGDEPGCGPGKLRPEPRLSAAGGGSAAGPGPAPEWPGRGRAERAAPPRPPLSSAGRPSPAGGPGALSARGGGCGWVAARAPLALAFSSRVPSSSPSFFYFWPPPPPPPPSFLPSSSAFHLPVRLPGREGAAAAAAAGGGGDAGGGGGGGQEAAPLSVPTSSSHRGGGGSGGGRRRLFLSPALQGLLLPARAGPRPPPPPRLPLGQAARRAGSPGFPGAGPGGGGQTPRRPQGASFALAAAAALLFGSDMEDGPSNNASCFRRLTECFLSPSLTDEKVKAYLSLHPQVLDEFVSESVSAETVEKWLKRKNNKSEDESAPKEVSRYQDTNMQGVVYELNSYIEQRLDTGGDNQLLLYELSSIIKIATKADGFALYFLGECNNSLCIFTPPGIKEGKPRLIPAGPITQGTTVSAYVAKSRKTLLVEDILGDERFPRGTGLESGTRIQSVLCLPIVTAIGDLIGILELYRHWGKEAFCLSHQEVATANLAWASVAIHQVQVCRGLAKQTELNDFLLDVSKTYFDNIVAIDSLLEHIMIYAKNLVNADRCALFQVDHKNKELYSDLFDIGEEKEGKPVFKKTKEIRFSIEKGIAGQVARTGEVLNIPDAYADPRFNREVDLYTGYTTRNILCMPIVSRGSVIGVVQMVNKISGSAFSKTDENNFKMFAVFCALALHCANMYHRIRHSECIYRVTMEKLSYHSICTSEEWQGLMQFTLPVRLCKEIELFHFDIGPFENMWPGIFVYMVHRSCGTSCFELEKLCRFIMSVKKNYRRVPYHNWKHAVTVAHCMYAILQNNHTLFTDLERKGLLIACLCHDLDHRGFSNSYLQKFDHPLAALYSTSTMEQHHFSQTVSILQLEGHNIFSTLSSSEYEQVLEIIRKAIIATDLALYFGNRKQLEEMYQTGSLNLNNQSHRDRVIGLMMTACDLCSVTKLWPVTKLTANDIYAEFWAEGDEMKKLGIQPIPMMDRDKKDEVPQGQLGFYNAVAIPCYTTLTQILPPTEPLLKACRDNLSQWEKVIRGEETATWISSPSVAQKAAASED
Sequence of hERG (KCNH2) (Q12809 whole entry): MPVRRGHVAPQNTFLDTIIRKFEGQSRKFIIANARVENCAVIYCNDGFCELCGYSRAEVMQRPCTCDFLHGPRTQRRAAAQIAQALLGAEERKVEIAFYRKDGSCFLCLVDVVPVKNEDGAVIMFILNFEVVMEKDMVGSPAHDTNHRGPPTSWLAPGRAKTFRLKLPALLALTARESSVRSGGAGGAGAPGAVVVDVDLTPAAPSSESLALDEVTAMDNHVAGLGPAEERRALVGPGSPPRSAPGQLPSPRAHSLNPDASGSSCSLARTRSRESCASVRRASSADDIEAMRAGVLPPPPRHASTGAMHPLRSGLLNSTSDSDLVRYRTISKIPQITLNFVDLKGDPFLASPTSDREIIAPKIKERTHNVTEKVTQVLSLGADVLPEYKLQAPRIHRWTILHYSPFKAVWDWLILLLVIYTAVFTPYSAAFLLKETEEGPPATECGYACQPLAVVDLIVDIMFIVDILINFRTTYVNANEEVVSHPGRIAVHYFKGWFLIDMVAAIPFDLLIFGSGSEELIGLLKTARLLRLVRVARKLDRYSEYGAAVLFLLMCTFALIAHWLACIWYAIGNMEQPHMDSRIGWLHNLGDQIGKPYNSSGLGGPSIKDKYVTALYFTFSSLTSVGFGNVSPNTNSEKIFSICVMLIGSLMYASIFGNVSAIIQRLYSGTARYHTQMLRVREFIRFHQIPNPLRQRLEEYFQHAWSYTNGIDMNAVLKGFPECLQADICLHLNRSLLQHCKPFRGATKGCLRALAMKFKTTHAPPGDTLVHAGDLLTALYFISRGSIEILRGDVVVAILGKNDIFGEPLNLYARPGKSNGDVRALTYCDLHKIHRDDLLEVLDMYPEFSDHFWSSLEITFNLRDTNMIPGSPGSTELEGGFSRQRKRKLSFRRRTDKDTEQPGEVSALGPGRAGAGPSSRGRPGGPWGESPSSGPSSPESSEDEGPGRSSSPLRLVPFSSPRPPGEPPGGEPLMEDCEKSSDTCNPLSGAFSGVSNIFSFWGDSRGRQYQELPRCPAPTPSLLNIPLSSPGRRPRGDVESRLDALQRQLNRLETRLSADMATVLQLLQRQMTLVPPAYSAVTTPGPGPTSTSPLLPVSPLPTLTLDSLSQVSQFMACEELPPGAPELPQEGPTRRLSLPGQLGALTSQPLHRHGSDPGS
Sequence of Proto-oncogene tyrosine-protein kinase Src (P12931 2-536 limits assumed): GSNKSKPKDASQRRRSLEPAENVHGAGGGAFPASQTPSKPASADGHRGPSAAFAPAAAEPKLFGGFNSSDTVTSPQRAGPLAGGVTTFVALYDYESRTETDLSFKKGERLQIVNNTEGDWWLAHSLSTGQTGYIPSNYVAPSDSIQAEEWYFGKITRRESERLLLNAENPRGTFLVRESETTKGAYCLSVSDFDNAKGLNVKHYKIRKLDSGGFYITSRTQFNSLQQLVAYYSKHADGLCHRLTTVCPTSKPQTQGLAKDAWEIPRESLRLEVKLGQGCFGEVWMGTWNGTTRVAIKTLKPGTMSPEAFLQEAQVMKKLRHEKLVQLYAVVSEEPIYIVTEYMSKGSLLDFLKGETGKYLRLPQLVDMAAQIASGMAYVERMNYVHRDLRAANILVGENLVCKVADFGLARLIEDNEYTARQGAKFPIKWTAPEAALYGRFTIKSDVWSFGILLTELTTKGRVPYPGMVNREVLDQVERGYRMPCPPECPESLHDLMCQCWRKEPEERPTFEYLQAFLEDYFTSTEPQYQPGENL

pIC50 [1]: 5.50
SMILES: NC(=O)c1nnc2ccccc2c1N

pEC50 [2]: 6.80
pIC50 [1]: 7.70
SMILES: CC(C)Nc1nc(-c2n[nH]c(=O)[nH]2)cc2ccccc12

pEC50 [2]: 7.00
pIC50 [1]: 8.00
SMILES: CC(C)Oc1nc(-c2n[nH]c(=O)[nH]2)cc2ccccc12

pIC50 [1]: 7.30
SMILES: CCOc1nc(-c2n[nH]c(=O)[nH]2)cc2ccccc12

pIC50 [1]: 5.50
SMILES: COc1nc2ccccc2cc1-c1n[nH]c(=O)[nH]1

pIC50 [1]: 6.60
SMILES: Cc1cc(OC(C)C)nc(-c2n[nH]c(=O)[nH]2)c1

pIC50 [1]: 3.50
SMILES: O=c1[nH]nc(-c2ccccn2)[nH]1

pEC50 [2]: 6.10
pIC50 [1]: 7.00
SMILES: CCNc1nc(-c2n[nH]c(=O)[nH]2)cc2ccccc12

pIC50 [1]: 5.00
SMILES: O=c1[nH]nc(-c2nc3ccccc3[nH]2)[nH]1

pIC50 [1]: < 4.00
SMILES: CCOc1ncccc1-c1n[nH]c(=O)[nH]1

pIC50 [1]: 5.20
SMILES: CCOc1cccc(-c2n[nH]c(=O)[nH]2)n1

pIC50 [1]: 4.00
SMILES: COc1ncccc1-c1n[nH]c(=O)[nH]1

pEC50 [2]: 6.40
pIC50 [1]: 7.60
SMILES: CCCOc1nc(-c2n[nH]c(=O)[nH]2)cc2ccccc12

pIC50 [1]: 7.50
SMILES: CC(=O)N1CC[C@H](Oc2nc(-c3n[nH]c(=O)[nH]3)cc3ccccc23)C1

pIC50 [1]: 3.90
SMILES: O=c1[nH]nc(-c2cccnc2)[nH]1

pIC50 [1]: 5.80
SMILES: CC(C)COc1cccc(-c2n[nH]c(=O)[nH]2)n1

pIC50 [1]: 5.30
SMILES: O=c1[nH]nc(-c2cc3ccccc3cn2)[nH]1

pEC50 [2]: 6.30
pIC50 [1]: 7.50
SMILES: C=CC(=O)N1CC[C@@H](Oc2nc(-c3n[nH]c(=O)[nH]3)cc3ccccc23)C1

pIC50 [1]: 4.50
SMILES: COc1cccc(-c2n[nH]c(=O)[nH]2)n1

pIC50 [1]: 6.40
SMILES: COc1nc(-c2n[nH]c(=O)[nH]2)cc2ccccc12

pIC50 [1]: 3.30
SMILES: Oc1n[nH]c(-c2ccccc2)n1

AUC [3]: 4.2 ng·h/mL
half-life [4]: 3 h
solubility thermodynamic [5]: < 1.1 µg/mL
Activity (PDE5): 67%
efflux ratio (MDR1 [7]): 10.8
solubility thermodynamic [10]: < 0.1 µg/mL
fraction unbound [11]: 0.098
Stability [12]: Stable
hepatic extraction ratio [13]: 0.21
fraction unbound [14]: 0.113
pIC50 [15]: 6.00
hepatic extraction ratio [17]: > 0.9
F [18]: 6%
hepatic extraction ratio [20]: 0.48
remaining at 2 h [22]: 75%
bioavailability [23]: 6.5%
clearance [24]: 28.5 mL/min/kg
pEC50 [2]: 8.90
hepatic extraction ratio [30]: 0.31
hepatic extraction ratio [31]: 0.37
Activity (PDE10A2): 59%
hepatic extraction ratio [33]: 0.81
solubility thermodynamic [34]: 6.8 µg/mL (≈ 19.4 µM)
pIC50 [35]: 6.20
Papp A→B (MDR1 [38]): 1.89 ×10⁻⁶ cm/s
hepatic extraction ratio [39]: 0.62
Activity (PDE3): 96%
half-life [42]: 0.7 h
pIC50 [1]: > 8.70
SMILES: C=CC(=O)N1CC[C@H](Oc2nc(-c3n[nH]c(=O)[nH]3)cc3ccccc23)C1 [TAK-020]
Activity (Salmonella typhimurium [6]): Non-Toxic
ED50 (Rattus norvegicus [8]): 0.17 mg/kg
inhibition (Rattus norvegicus [9]): Dose-Dependent Effect
Activity (Rattus norvegicus [16]): 75%
Activity [19]: Non-Toxic
Activity (Rattus norvegicus [21]): 240%
inhibition in vivo at 30 mg/kg [25]: > 50%
Activity (Salmonella typhimurium [26]): Non-Toxic
Activity (Rattus norvegicus [27]): 21%
Activity [28]: Non-Toxic
Activity (Salmonella typhimurium [29]): Non-Toxic
Activity (Salmonella typhimurium [32]): Non-Toxic
Activity (Salmonella typhimurium [36]): Non-Toxic
Activity [37]: Non-Toxic
Activity [40]: Non-Toxic
Activity (Salmonella typhimurium [41]): Non-Toxic
inhibition at 13 µM (hERG (KCNH2)): 18%
Activity (Rattus norvegicus [43]): 173%
